{"source": "paper PMC3793267", "about": "(Biomarkers, 2008)", "key": {"rat plasma albumin [1]": {"molecular_target": "T1, rat plasma albumin (Rattus norvegicus, UniProt P02770)", "T1 sequence (P02770 25-608)": "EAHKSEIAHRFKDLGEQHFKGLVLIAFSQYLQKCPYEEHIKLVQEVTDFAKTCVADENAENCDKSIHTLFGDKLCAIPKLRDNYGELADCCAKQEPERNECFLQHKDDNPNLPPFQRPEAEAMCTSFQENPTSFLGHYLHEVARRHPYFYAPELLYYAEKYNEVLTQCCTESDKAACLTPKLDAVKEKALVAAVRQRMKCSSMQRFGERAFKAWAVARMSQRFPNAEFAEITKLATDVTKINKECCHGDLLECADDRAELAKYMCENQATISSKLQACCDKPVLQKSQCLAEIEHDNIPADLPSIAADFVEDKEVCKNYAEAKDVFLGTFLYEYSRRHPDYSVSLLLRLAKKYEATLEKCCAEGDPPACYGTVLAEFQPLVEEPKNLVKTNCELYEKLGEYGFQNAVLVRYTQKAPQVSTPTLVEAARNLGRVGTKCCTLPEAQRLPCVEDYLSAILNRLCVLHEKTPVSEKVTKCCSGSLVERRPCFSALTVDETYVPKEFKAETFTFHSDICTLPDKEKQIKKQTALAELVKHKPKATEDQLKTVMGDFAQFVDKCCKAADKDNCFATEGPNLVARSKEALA", "test": "biochemical", "type": "binding"}, "rat plasma albumin [2]": {"molecular_target": "T1, rat plasma albumin", "test": "Plasma albumin binding by pesticide in vivo after oral dosing of rats", "parameters": "species or system F344 rats", "settings": "for inhibition of binding of the ^3H-DFP-radiolabelled albumin molecules in vivo: 25% of LD50, plasma 1 day after dosing"}, "erythrocyte AChE [3]": {"molecular_target": "erythrocyte AChE (Rattus norvegicus, UniProt P37136)", "test": "Erythrocyte AChE inhibition after oral dosing of rats", "type": "in vivo, F344 rats"}, "rats": {"system": "rats", "test": "Clinical signs in rats after oral dosing"}, "Erythrocyte AChE [4]": {"system": "Erythrocyte AChE", "settings": "steady (linear) recovery; ref Mason [2000]; cited from earlier work"}}, "data": [{"smiles": "COP(=O)(OC)SCn1c(=O)oc2cc(Cl)cnc21", "note": "[Azamethiphos (oxon), S-6-chloro-2,3-dihydro-2-oxo-1,3-oxazolo[4,5-b]pyridin-3-ylmethyl O,O-dimethyl phosphorothioate]", "values": [{"measurement": "rat plasma albumin binding (^3H-DFP radiolabelling) reduced from controls", "setting": "rat plasma albumin [1]", "result": "9±1", "unit": "%"}]}, {"smiles": "CCOP(=O)(OCC)OC(=CCl)c1ccc(Cl)cc1Cl", "note": "[Chlorfenvinphos (oxon), 2-chloro-1-(2,4-dichlorophenyl)vinyl diethyl phosphate]", "values": [{"measurement": "IC50", "setting": "rat plasma albumin [1]", "result": "~0.4", "unit": "µM"}, {"measurement": "^3H-DFP incorporation into rat plasma albumin versus controls (significance)", "setting": "rat plasma albumin [1]", "result": "significantly different from controls"}, {"measurement": "rat plasma albumin binding (^3H-DFP radiolabelling) reduced from controls", "setting": "rat plasma albumin [1]", "result": "67±2", "unit": "%"}, {"measurement": "inhibition of binding of the ^3H-DFP-radiolabelled albumin molecules in vivo", "setting": "rat plasma albumin [2]", "result": "approximately 50%"}, {"measurement": "^3H-DFP radiolabelled albumin molecules bound in vivo", "setting": "rat plasma albumin [2]; each of the doses 12.5%, 25% and 80% of LD50, 24 h after dosing", "result": "approximately 50%"}, {"measurement": "inhibition at 1.25 mg/kg", "setting": "erythrocyte AChE [3]; rat, po, read-out: erythrocyte AChE inhibition", "result": 22, "unit": "%"}, {"measurement": "clinical signs", "setting": "rats; 12.5% of LD50 (1.25 mg kg^−1)", "result": "not the lower dose"}, {"measurement": "clinical signs", "setting": "rats; 80% of LD50 (8.0 mg kg^−1)", "result": "salivation and muscle fasciculation in all rats"}]}, {"smiles": "CCOC(=O)CC(SP(=O)(OC)OC)C(=O)OCC", "note": "(stereo not shown) [Malaoxon]", "values": [{"measurement": "rat plasma albumin binding (^3H-DFP radiolabelling) reduced from controls", "setting": "rat plasma albumin [1]", "result": "8±1", "unit": "%"}]}, {"smiles": "CCOC(=O)CC(SP(=S)(OC)OC)C(=O)OCC", "note": "(stereo not shown) [Malathion, diethyl (dimethoxyphosphinothioylthio)succinate]", "values": [{"measurement": "erythrocyte AChE inhibition", "setting": "erythrocyte AChE [3]; rats, oral, (approximately) 25% of LD50, Day 1 (24 h) after dosing", "result": 57, "unit": "%"}]}, {"smiles": "CCN(CC)c1nc(C)cc(OP(=S)(OC)OC)n1", "note": "[Pirimiphos-methyl, O-2-diethylamino-6-methylpyrimidin-4-yl O,O-dimethyl phosphorothioate]", "values": [{"measurement": "inhibition of binding of the ^3H-DFP-radiolabelled albumin molecules in vivo", "setting": "rat plasma albumin [2]", "result": "approximately 50%"}]}, {"smiles": "COP(=O)(OC)OC=C(Cl)Cl", "note": "[dichlorvos]", "values": [{"measurement": "time for erythrocyte AChE to return to control levels", "setting": "Erythrocyte AChE [4]", "result": "approximately 82 days"}]}]}
